Experimental data as given in patent publication US8106038B2, “Method for reducing or preventing PDT related inflammation” (QLT Inc., priority 2001, dated 2012).

Experiments:
macrophages = details: rabbit, in vivo
Experimental: Tetracaine HCI (0.5%) was used for topical anesthesia.
All eyes were enucleated immediately after euthanasia. […] Serial cryosections were cut and stored at −70° C. Non-treated eyes were used for control. Cryosections were stained with H&E and immunohistochemical staining.

normal rabbit choroid [1] = details: in vivo
Experimental: (§1) Twelve pigmented rabbits weighing between 2 and 4 kg were used. Animals were anesthetized with ketamine HCI (40 mg/kg) and xylocaine (5 mg/kg). Tetracaine HCI (0.5%) was used for topical anesthesia. Tropicamide (1%) and phenylephrine (2.5%) eye drops were used for pupillary dilation. Euthanasia was accomplished with sodium pentobarbital (150 mg/kg) intracardiac injection. Two rabbits were sacrificed at day 2, 7, 14, 28, 42 and 56 following PDT.
(§2) Ten rabbits were injected intravenously with 2 mg/kg BPD-MA, and 689 nm laser light at 600 mW/cm^2 was successively applied on three 1.25-mm spot in one eye according to the following schedule:
Following PDT, animals were kept in a dark room overnight.
Fluorescein angiography (FA) and fundus photography were performed as 2 baseline before PDT, the day after PDT, weekly, and at the day of sacrifice.
(§3) Normal-dose PDT was performed as phase 1 in three rabbits.
(§4) Immediately after each individual light treatment with normal-dose PDT, 5 mm Spot concentric with the 1.25 mm spot was exposed to 15 J/cm^2 (25 sec) in three rabbits. FA and fundus photography was taken as phase 1, and animals were sacrificed for immunohistochemical study at day 28 following PDT.

normal rabbit choroid [2] = details: in vivo; remark: listed apart in the source
Experimental: as §1, §2
(§5) All eyes were enucleated immediately after euthanasia. After the cornea, lens, and vitreous were removed, experimental area was delineated with sharp cuts. Tissue was placed in freezing compound (OCT) and frozen in liquid nitrogen. Serial cryosections were cut and stored at −70° C. Non-treated eyes were used for control. Cryosections were stained with H&E and immunohistochemical staining.

CD4 positive cells = details: rabbit, in vivo
Experimental: as §1, §2, §5
(§6) Frozen sections were thawed and fixed with fresh acetone for 5 minutes. Endogenous peroxide activity was blocked with 0.3% hydrogen peroxide in phosphate buffered saline (PBS). After blocked with PBS and 1% bovine serum albumin (BSA), the specific primary antibodies were diluted in PBS with 1% BSA and incubated at room temperature for an hour. […]

CD8 positive cells = details: rabbit, in vivo
Experimental: as §1, §2, §5, §6

MHC-II positive cells = details: rabbit, in vivo
Experimental: as §1, §2, §5, §6

[3] = tested on: CD4, CD8, Macrophage and MHC-II positive cells; test: Immunohistochemistry of inflammatory cells after PDT (combined statements)
Experimental: as §1, §2, §5
Frozen sections were thawed and fixed with fresh acetone for 5 minutes. Endogenous peroxide activity was blocked with 0.3% hydrogen peroxide in phosphate buffered saline (PBS). After blocked with PBS and 1% bovine serum albumin (BSA), the specific primary antibodies were diluted in PBS with 1% BSA and incubated at room temperature for an hour. Detection was achieved using ABC Elite detection kit (DAKO) with aminoethylcarbizole as the chromogen. Sections were counterstained with light Mayers' hematoxylin, washed with tap water, and mounted in water soluble mounting medium (Biomeda, Catalogue no. MO1).
as §3, §4

For “9-methyl (I) and 13-methyl (II) trans-(±)-18-ethenyl-4,4a-dihydro-3,4-bis(methoxycarbonyl)-4a,8,14,19-tetramethyl-23H,25H-benzo[b]porphine-9,13-dipropanoate [BPD-MA]”, the “Macrophage positive cells after the additional low-dose PDT” value (macrophages) was “slightly increased”, the “change of macrophages versus control” value (macrophages) was “statistically significantly increased” and the “neovascular leakage on fluorescein angiography” value (normal rabbit choroid [1]) was “no neovascular leakages”. For the same substance, the “dependence of histologic damage on dose of light” value (normal rabbit choroid [2]) was “more severe with the higher dose of light”, the “histologic damage of RPE layer, photoreceptor layer, outer nuclear and plexiform layer” value (normal rabbit choroid [2]) was “damaged in all cases” and the “histologic damage of inner nuclear layer” value (normal rabbit choroid [2]) was “a little damages but generally preserved well”. For the same substance, the “state of choriocapillaries and larger choroidal vessels after PDT” value (normal rabbit choroid [2]) was “collapsed after PDT, but not the larger choroidal vessels”, the “time for RPE layer to begin to become a monolayer again” value (normal rabbit choroid [2]) was “in two weeks” and the “change of CD4 positive cells in treated area” value (CD4 positive cells) was “no significant increase”. The “change of CD4 positive cells versus control” value (CD4 positive cells) was “statistically significantly increased”, the “change of CD8 positive cells versus control” value (CD8 positive cells) was “statistically significantly increased” and the “change of MHC-II positive cells versus control” value (MHC-II positive cells) was “statistically significantly increased”. The “persistence of inflammatory reactions after therapeutic PDT” value ([3]; normal rabbit choroid) was at most 56 days, the “change of CD4, CD8, Macrophage and MHC-II positive cells compared to control” value ([3]; rabbit, Phase 2, 4 weeks after low-dose PDT) was “slightly increased” and the “effect of additional concentric large diameter low-dose PDT on the increase in CD4, CD8, Macrophage and MHC-II positive cells after normal-dose PDT” value ([3]; rabbit, Phase 3, day 28) was “suppressed the increase”. For the same substance, the “effect of low dose light following therapeutic PDT on inflammation” value ([3]; rabbit, low dose light 15 J/cm^2) was “effectively inhibited the increase in inflammation”.
